Data taken from ChEMBL document CHEMBL6177960, “Rational design, optimization, and biological evaluation of novel pyrrolo-pyridone derivatives as potent and orally active Cbl-b inhibitors” (Eur J Med Chem, 2025).

What was measured:
[1] = Toxicity in female BALB/C mouse model implanted with mouse CT26 cells assessed as effect on body weight at 30 mg/kg, po administered via gavage once daily and measured after 14 days; conditions: in vivo, 336 h
[2] = in vitro; conditions: rhesus monkey, hepatocytes
[3] = Inhibition of immunosuppressive activity in PGE2-induced human T cells assessed as increase in cell proliferation preincubated with PGE2 for 15 mins followed by compound administration for 60 mins and measured after 72 hrs of anti-human CD28 antibody by flow cytometric analysis
[4] = in vivo; conditions: male, CD-1(ICR), mouse, iv, 1 mg/kg
Description: C0 in male CD-1(ICR) mouse at 1 mg/kg, iv measured after 1440 mins by LC-MS/MS analysis

[5] = in vivo; conditions: male, CD-1(ICR), mouse, po, 10 mg/kg
[6] = Apparent permeability across apical to basolateral side in human Caco-2 cells at 2 uM incubated for 2 hrs by LC-MS/MS analysis
[7] = Plasma protein binding in Sprague-Dawley rat at 5 uM incubated for 5 hrs by equilibrium dialysis based LC-MS analysis
[8] = Protein binding in CD-1 mouse plasma assessed as unbound fraction at 5 uM incubated for 5 hrs by equilibrium dialysis based LC-MS analysis
[9] = mouse, in vivo, iv, 1 mg/kg, 24 h
[10] = in vitro; conditions: rat, hepatocytes
[11] = in vivo; conditions: male, CD-1(ICR), mouse, iv, 1 mg/kg; remark: listed apart in the source
Description: Clearance in male CD-1(ICR) mouse at 1 mg/kg, iv measured after 1440 mins by LC-MS/MS analysis

[12] = Metabolic stability in human hepatocytes assessed as hepatic extraction ratio at 2 uM measured up to 120 mins by LC-MS/MS analysis
[13] = in vivo; conditions: male, CD-1(ICR), mouse, iv, 1 mg/kg; remark: listed apart in the source
Description: Volume of distribution at steady state in male CD-1(ICR) mouse at 1 mg/kg, iv measured after 1440 mins by LC-MS/MS analysis

[14] = in vivo; conditions: male, CD-1(ICR), mouse, po, 10 mg/kg; remark: listed apart in the source
Description: AUCinfinity in male CD-1(ICR) mouse at 10 mg/kg, po measured after 1440 mins by LC-MS/MS analysis

[15] = in vitro; conditions: mouse, hepatocytes
[16] = Protein binding in cynomolgus monkey plasma assessed as unbound fraction at 5 uM incubated for 5 hrs by equilibrium dialysis based LC-MS analysis
[17] = in vivo; conditions: male, CD-1(ICR), mouse, po, 10 mg/kg; remark: listed apart in the source
Description: Half-life in male CD-1(ICR) mouse at 10 mg/kg, po measured after 1440 mins by LC-MS/MS analysis

[18] = Metabolic stability in dog hepatocytes assessed as hepatic extraction ratio at 2 uM measured up to 120 mins by LC-MS/MS analysis
[19] = Inhibition of immunosuppressive activity in PGE2-induced human T cells assessed as increase in IL2 production preincubated with PGE2 for 15 mins followed by compound administration for 60 mins and measured after 48 hrs of anti-human CD28 antibody by ELISA; conditions: T-cell
[20] = Apparent permeability across apical to basolateral side in human Caco-2 cells assessed as drug recovery at 2 uM incubated for 2 hrs by LC-MS/MS analysis
[21] = Metabolic stability in rat hepatocytes assessed as hepatic extraction ratio at 2 uM measured up to 120 mins by LC-MS/MS analysis
[22] = in vitro; conditions: dog, hepatocytes
[23] = Inhibition of immunosuppressive activity in PGE2-induced human T cells assessed as increase in IFNgamma production preincubated with PGE2 for 15 mins followed by compound administration for 60 mins and measured after 48 hrs of anti-human CD28 antibody by ELISA; conditions: T-cell
[24] = in vivo; conditions: male, CD-1(ICR), mouse, po, 10 mg/kg; remark: listed apart in the source
[25] = in vivo; conditions: male, CD-1(ICR), mouse, po, 10 mg/kg; remark: listed apart in the source
Description: MRTinfinity in male CD-1(ICR) mouse at 10 mg/kg, po measured after 1440 mins by LC-MS/MS analysis

[26] = Metabolic stability in mouse hepatocytes assessed as hepatic extraction ratio at 2 uM measured up to 120 mins by LC-MS/MS analysis
[27] = in vivo; conditions: male, CD-1(ICR), mouse, po, 10 mg/kg; remark: listed apart in the source
[28] = Metabolic stability in monkey hepatocytes assessed as hepatic extraction ratio at 2 uM measured up to 120 mins by LC-MS/MS analysis; conditions: rhesus monkey
[29] = in vivo; conditions: male, CD-1(ICR), mouse, iv, 1 mg/kg; remark: listed apart in the source
Description: Apparent volume of distribution in male CD-1(ICR) mouse at 1 mg/kg, iv measured after 1440 mins by LC-MS/MS analysis

[30] = in vivo; conditions: male, CD-1(ICR), mouse, iv, 1 mg/kg; remark: listed apart in the source
Description: Half-life in male CD-1(ICR) mouse at 1 mg/kg, iv measured after 1440 mins by LC-MS/MS analysis

[31] = Apparent permeability across basolateral to apical side in human Caco-2 cells at 2 uM incubated for 2 hrs by LC-MS/MS analysis
[32] = Protein binding in Beagle dog plasma assessed as unbound fraction at 5 uM incubated for 5 hrs by equilibrium dialysis based LC-MS analysis
[33] = rhesus monkey, hepatocytes, 2 h, 2 µM
[34] = in vitro; conditions: human, Caco-2
[35] = Protein binding in Sprague-Dawley rat plasma assessed as unbound fraction at 5 uM incubated for 5 hrs by equilibrium dialysis based LC-MS analysis
[36] = rat, hepatocytes, 2 h, 2 µM
[37] = Plasma protein binding in human at 5 uM incubated for 5 hrs by equilibrium dialysis based LC-MS analysis
[38] = in vivo; conditions: male, CD-1(ICR), mouse, iv, 1 mg/kg; remark: listed apart in the source
Description: MRTinfinity in male CD-1(ICR) mouse at 1 mg/kg, iv measured after 1440 mins by LC-MS/MS analysis

[39] = target: E3 ubiquitin-protein ligase CBL-B (Homo sapiens, UniProt Q13191); assay: Binding affinity to Cbl-b (unknown origin) assessed as inhibition constant incubated for 60 mins by TR-FRET assay
[40] = in vivo; conditions: male, CD-1(ICR), mouse, iv, 1 mg/kg; remark: listed apart in the source
Description: AUCinfinity in male CD-1(ICR) mouse at 1 mg/kg, iv measured after 1440 mins by LC-MS/MS analysis

[41] = mouse, hepatocytes, 2 h, 2 µM
[42] = in vitro; conditions: dog, hepatocytes; remark: listed apart in the source
[43] = in vivo; conditions: male, CD-1(ICR), mouse, po, 10 mg/kg; remark: listed apart in the source
Description: AUClast in male CD-1(ICR) mouse at 10 mg/kg, po measured after 1440 mins by LC-MS/MS analysis

[44] = Plasma protein binding in Beagle dog at 5 uM incubated for 5 hrs by equilibrium dialysis based LC-MS analysis
[45] = Plasma protein binding in CD-1 mouse at 5 uM incubated for 5 hrs by equilibrium dialysis based LC-MS analysis
[46] = Plasma protein binding in cynomolgus monkey at 5 uM incubated for 5 hrs by equilibrium dialysis based LC-MS analysis
[47] = human, hepatocytes, 2 h, 2 µM
[48] = mouse, in vivo, po, 10 mg/kg, 24 h
[49] = in vivo; conditions: male, CD-1(ICR), mouse, iv, 1 mg/kg; remark: listed apart in the source
Description: AUClast in male CD-1(ICR) mouse at 1 mg/kg, iv measured after 1440 mins by LC-MS/MS analysis

[50] = Protein binding in human plasma assessed as unbound fraction at 5 uM incubated for 5 hrs by equilibrium dialysis based LC-MS analysis
[51] = in vitro; conditions: human, hepatocytes
[52] = Apparent permeability across basolateral to apical side in human Caco-2 cells assessed as drug recovery at 2 uM incubated for 2 hrs by LC-MS/MS analysis

Chain of E3 ubiquitin-protein ligase CBL-B (Q13191 whole entry): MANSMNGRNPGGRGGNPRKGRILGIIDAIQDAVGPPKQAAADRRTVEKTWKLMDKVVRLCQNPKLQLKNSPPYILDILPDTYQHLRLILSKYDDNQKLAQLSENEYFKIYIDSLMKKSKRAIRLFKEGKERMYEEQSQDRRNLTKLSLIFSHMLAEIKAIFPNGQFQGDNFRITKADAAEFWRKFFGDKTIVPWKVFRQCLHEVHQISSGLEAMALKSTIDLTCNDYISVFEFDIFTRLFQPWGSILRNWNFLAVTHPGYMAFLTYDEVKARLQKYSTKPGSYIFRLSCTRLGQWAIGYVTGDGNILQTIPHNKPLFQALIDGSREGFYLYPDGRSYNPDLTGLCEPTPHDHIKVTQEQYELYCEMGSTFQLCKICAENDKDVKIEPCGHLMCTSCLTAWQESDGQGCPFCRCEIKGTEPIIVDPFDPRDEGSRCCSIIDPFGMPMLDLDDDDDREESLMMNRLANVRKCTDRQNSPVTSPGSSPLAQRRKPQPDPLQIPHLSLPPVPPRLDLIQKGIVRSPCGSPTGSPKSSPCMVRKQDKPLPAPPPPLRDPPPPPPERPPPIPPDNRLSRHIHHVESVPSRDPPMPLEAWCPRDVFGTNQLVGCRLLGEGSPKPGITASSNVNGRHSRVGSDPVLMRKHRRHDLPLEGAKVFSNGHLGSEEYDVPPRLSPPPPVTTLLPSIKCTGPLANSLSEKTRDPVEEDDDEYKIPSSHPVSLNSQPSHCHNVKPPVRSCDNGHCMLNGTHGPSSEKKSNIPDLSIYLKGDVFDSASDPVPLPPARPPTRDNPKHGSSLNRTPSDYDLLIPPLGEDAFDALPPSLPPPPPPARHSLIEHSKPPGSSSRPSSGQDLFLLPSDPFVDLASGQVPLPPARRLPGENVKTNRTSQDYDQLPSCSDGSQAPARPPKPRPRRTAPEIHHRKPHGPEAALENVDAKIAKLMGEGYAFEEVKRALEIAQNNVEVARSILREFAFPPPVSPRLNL

**Q.** For `C[C@H]1CCCN(Cc2cc3c(c(C(F)(F)F)c2)CN(c2cccc([C@]4(c5nncn5C)C[C@@H](C)C4)c2)C3=O)C1`, which Activity [1] is on record?
**A.** Its Activity is “Non-toxic”.

**Q.** What about the half-life at 2 h, 2 µM [2] of the same molecule?
**A.** Its half-life at 2 h, 2 µM is 9.3 min.

**Q.** And the EC50 [3]?
**A.** The EC50 was 0.0268 µM.

**Q.** What about the C0 at 24 h [4] of the same molecule?
**A.** The C0 at 24 h was 572 ng/mL.

**Q.** And the bioavailability at 24 h [5]?
**A.** Its bioavailability at 24 h is 24.6%.

**Q.** What about the Papp A→B at 2 h, 2 µM [6] of the same molecule?
**A.** Its Papp A→B at 2 h, 2 µM is 1.98 ×10⁻⁶ cm/s.

**Q.** What about the fraction unbound at 5 h, 5 µM [7] of the same molecule?
**A.** Its fraction unbound at 5 h, 5 µM is 0.0736.

**Q.** What about the fraction unbound at 5 h, 5 µM [8] of the same molecule?
**A.** The fraction unbound at 5 h, 5 µM was 0.0434.

**Q.** What about the “%AUCextra” value [9] of the same molecule?
**A.** The value was 1.18%.

**Q.** And the half-life at 2 h, 2 µM [10]?
**A.** The half-life at 2 h, 2 µM was 39.3 min.

**Q.** What about the clearance at 24 h [11] of the same molecule?
**A.** Its clearance at 24 h is 59.7 mL/min/kg.

**Q.** And the hepatic extraction ratio at 2 h, 2 µM [12]?
**A.** The hepatic extraction ratio at 2 h, 2 µM was 0.7.

**Q.** What about the Vd at 24 h [13] of the same molecule?
**A.** The Vd at 24 h was 1.55 L/kg.

**Q.** What about the AUC(0-inf) at 24 h [14] of the same molecule?
**A.** Its AUC(0-inf) at 24 h is 690 ng·h/mL.

**Q.** What about the half-life at 2 h, 2 µM [15] of the same molecule?
**A.** Its half-life at 2 h, 2 µM is 10.4 min.

**Q.** What about the fraction unbound at 5 h, 5 µM [16] of the same molecule?
**A.** Its fraction unbound at 5 h, 5 µM is 0.044.

**Q.** What about the half-life at 24 h [17] of the same molecule?
**A.** The half-life at 24 h was 161 min.

**Q.** And the hepatic extraction ratio at 2 h, 2 µM [18]?
**A.** Its hepatic extraction ratio at 2 h, 2 µM is 0.9.

**Q.** What about the EC50 [19] of the same molecule?
**A.** Its EC50 is 0.894 µM.

**Q.** What about the recovery at 2 h, 2 µM [20] of the same molecule?
**A.** The recovery at 2 h, 2 µM was 101%.

**Q.** What about the hepatic extraction ratio at 2 h, 2 µM [21] of the same molecule?
**A.** The hepatic extraction ratio at 2 h, 2 µM was 0.8.

**Q.** And the CLint scaled at 2 h, 2 µM [22]?
**A.** The CLint scaled at 2 h, 2 µM was 50.8 mL/min/kg.

**Q.** What about the EC50 [23] of the same molecule?
**A.** Its EC50 is 0.892 µM.

**Q.** And the Cmax at 24 h [24]?
**A.** Its Cmax at 24 h is 629 ng/mL.

**Q.** What about the MRT inf at 24 h [25] of the same molecule?
**A.** The MRT inf at 24 h was 103 min.

**Q.** What about the hepatic extraction ratio at 2 h, 2 µM [26] of the same molecule?
**A.** The hepatic extraction ratio at 2 h, 2 µM was 0.9.

**Q.** And the Tmax at 24 h [27]?
**A.** The Tmax at 24 h was 19.8 min.

**Q.** What about the hepatic extraction ratio at 2 h, 2 µM [28] of the same molecule?
**A.** The hepatic extraction ratio at 2 h, 2 µM was 0.9.

**Q.** What about the Vd at 24 h [29] of the same molecule?
**A.** The Vd at 24 h was 1.62 L/kg.

**Q.** And the half-life at 24 h [30]?
**A.** The half-life at 24 h was 18.6 min.

**Q.** And the Papp B→A at 2 h, 2 µM [31]?
**A.** The Papp B→A at 2 h, 2 µM was 35.8 ×10⁻⁶ cm/s.

**Q.** And the fraction unbound at 5 h, 5 µM [32]?
**A.** Its fraction unbound at 5 h, 5 µM is 0.078.

**Q.** What about the CLH [33] of the same molecule?
**A.** Its CLH is 37.5 mL/min/kg.

**Q.** What about the efflux ratio at 2 h, 2 µM [34] of the same molecule?
**A.** The efflux ratio at 2 h, 2 µM was 18.

**Q.** What about the fraction unbound at 5 h, 5 µM [35] of the same molecule?
**A.** The fraction unbound at 5 h, 5 µM was 0.0736.

**Q.** What about the CLH [36] of the same molecule?
**A.** Its CLH is 25.2 mL/min/kg.

**Q.** What about the fraction unbound at 5 h, 5 µM [37] of the same molecule?
**A.** The fraction unbound at 5 h, 5 µM was 0.0522.

**Q.** And the MRT inf at 24 h [38]?
**A.** The MRT inf at 24 h was 26.4 min.

**Q.** What about the Ki [39] of the same molecule?
**A.** The Ki was 0.00184 µM.

**Q.** What about the AUC(0-inf) at 24 h [40] of the same molecule?
**A.** The AUC(0-inf) at 24 h was 281 ng·h/mL.

**Q.** And the CLH [41]?
**A.** The CLH was 79.8 mL/min/kg.

**Q.** What about the half-life at 2 h, 2 µM [42] of the same molecule?
**A.** The half-life at 2 h, 2 µM was 5.2 min.

**Q.** What about the AUC(0-t) at 24 h [43] of the same molecule?
**A.** Its AUC(0-t) at 24 h is 661 ng·h/mL.

**Q.** What about the fraction unbound at 5 h, 5 µM [44] of the same molecule?
**A.** Its fraction unbound at 5 h, 5 µM is 0.078.

**Q.** What about the fraction unbound at 5 h, 5 µM [45] of the same molecule?
**A.** The fraction unbound at 5 h, 5 µM was 0.0434.

**Q.** What about the fraction unbound at 5 h, 5 µM [46] of the same molecule?
**A.** Its fraction unbound at 5 h, 5 µM is 0.044.

**Q.** And the CLH [47]?
**A.** Its CLH is 14.3 mL/min/kg.

**Q.** And the “%AUCextra” value [48]?
**A.** The value was 4.76%.

**Q.** And the AUC(0-t) at 24 h [49]?
**A.** Its AUC(0-t) at 24 h is 277 ng·h/mL.

**Q.** And the fraction unbound at 5 h, 5 µM [50]?
**A.** The fraction unbound at 5 h, 5 µM was 0.0522.

**Q.** And the half-life at 2 h, 2 µM [51]?
**A.** Its half-life at 2 h, 2 µM is 46 min.

**Q.** And the recovery at 2 h, 2 µM [52]?
**A.** Its recovery at 2 h, 2 µM is 81.3%.
